Test results as given in US20040049072A1, “RXR modulators with improved pharmacologic profile” (priority 1999, published 2004).
Where two headings read alike, the source gives them in different places.

How the values were obtained:
RXRα = molecular target: T1, RXRα (Homo sapiens, UniProt P19793); assay: RXRα binding (competition with tritiated LGD1069)
T1 sequence (P19793 1-462): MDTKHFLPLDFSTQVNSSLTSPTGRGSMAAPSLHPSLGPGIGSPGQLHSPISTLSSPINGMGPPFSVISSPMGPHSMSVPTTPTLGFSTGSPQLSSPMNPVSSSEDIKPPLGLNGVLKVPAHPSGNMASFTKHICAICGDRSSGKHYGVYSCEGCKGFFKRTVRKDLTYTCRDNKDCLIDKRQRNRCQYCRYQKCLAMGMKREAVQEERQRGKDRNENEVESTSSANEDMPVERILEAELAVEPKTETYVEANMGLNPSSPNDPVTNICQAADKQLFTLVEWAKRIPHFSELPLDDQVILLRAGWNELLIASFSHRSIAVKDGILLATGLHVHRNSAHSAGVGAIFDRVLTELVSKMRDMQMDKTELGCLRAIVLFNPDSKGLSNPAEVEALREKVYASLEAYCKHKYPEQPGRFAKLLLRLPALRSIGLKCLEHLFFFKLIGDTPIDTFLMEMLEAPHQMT
Method: Non-specific binding was defined as that binding remaining in the presence of 500 nM of the appropriate unlabelled compound. At the end of the incubation period, bound ligand was separated from free. The amount of bound tritiated retinoid was determined by liquid scintillation counting of an aliquot (700 μL) of the supernatant fluid or the hydroxylapatite pellet.
After correcting for non-specific binding, IC50 values were determined. […] The IC50 value was determined graphically from a log-logit plot of the data. The Ki values were determined by application of the Cheng-Prussof equation to the IC50 values, the labeled ligand concentration and the Kd of the labeled ligand.

RXRα:RAR heterodimer = molecular target: T2, RXRα:RAR heterodimer (Homo sapiens, UniProt P19793); assay: RXR:RAR heterodimer co-transfection assay in CV-1 cells; assay type: cell-based
T2 construct: expressed in transfected cells; host or cells: CV-1 cells
T2 sequence (P19793 1-462): T1 sequence (P19793 1-462)
Method: For determination of agonist activity in the context of the RXR:RAR heterodimer or the RXR:PPARγ heterodimer, media containing compounds of the present invention in concentrations ranging from 10^−10 to 10^−5 M were added to the cells.
Compounds of the present invention were also tested for the ability to synergize with a PPARγ agonist in the context of an RXR heterodimer. […] Efficacy of the compounds of the present invention in the agonist and synergy assays was calculated as the maximum response obtained over the range of the dose response curve relative to the maximum response obtained by the reference agonist. Antagonist efficacy was determined as a function (%) of maximal inhibition.
However, when RAR is occupied, typical RXR agonists activate the heterodimer. […] To examine the effects of the compounds of the present invention on the transcriptional properties of the RXR:RAR heterodimer, a heterodimer cotransfection assay as described above was employed.

[1] = tested on: mice transgenic for the human apolipoprotein A-I gene; assay: transgenic mice carrying the human apo A-I gene (HDL cholesterol, triglycerides); assay type: in vivo, mouse
Excerpt: Mice transgenic for the human apolipoprotein A-I gene (obtained from Jackson Laboratory) were used to evaluate PPARalpha mediated effects on HDL cholesterol. The mice were handled as described above for db/db mice, except that they were fed Purina 5001.

[2] = Table 3, mean of n > 3, read-out: RXRα Binding Ki
[3] = from IC50 by Cheng-Prussof equation, tritiated LGD1069, read-out: Bind RXRα Ki
[4] = CV-1, read-out: RXR:RAR CV-1 (%) Ag.
[5] = CV-1, read-out: RXRα:RAR Heterodimer Cotransfection Assay Agonist Efficacy (%)
[6] = maximal repression (100%) in presence of 10 nM TTNPB
[7] = relative to maximal repression (100%) in presence of 10 nM TTNPB

Emax (RXRα:RAR heterodimer; CV-1; read-out: RXR:RAR CV-1 (%) Ag.)	Emax (RXRα:RAR heterodimer; CV-1; read-out: RXRα:RAR Heterodimer Cotransfection Assay Agonist Efficacy (%))	Structure (SMILES)	Ki (RXRα; [2])	Ki (RXRα; [3])	Emax (RXRα:RAR heterodimer; [4])	Emax (RXRα:RAR heterodimer; [5])	agonist activity on the RXR:RAR heterodimer (RXRα:RAR heterodimer; compound alone)	RXR:RAR CV-1 (%) Antag. (RXRα:RAR heterodimer; [6])	RXRα:RAR Heterodimer Cotransfection Assay Antagonist Efficacy (%) (RXRα:RAR heterodimer; [7])	triglycerides [1]	antagonist activity on the RXR:RAR heterodimer (RXRα:RAR heterodimer; antagonist assay)	RXR:RAR antagonist activity relative to L2 (RXRα:RAR heterodimer; comparison of L3 with L2)
–	–	COc1c(/C(C)=C/C=C/C(C)=C/C(=O)O)cc(C(C)(C)C)cc1C(C)(C)C [Compound L1]	1.1 nM	1.1 nM	21%	21%	weak agonist activity alone	19%	19%	substantially raise triglycerides	–	–
–	–	CCOc1c(/C(C)=C/C=C/C(C)=C/C(=O)O)cc(C(C)(C)C)cc1C(C)(C)C [Compound L2]	13 nM	13 nM	6%	6%	not active in the RXR:RAR assay	49%	49%	–	–	–
–	–	CCCOc1c(/C(C)=C/C=C/C(C)=C/C(=O)O)cc(C(C)(C)C)cc1C(C)(C)C [Compound L3]	1.1 nM	1 nM	5%	5%	not active as RXR:RAR agonists	84%	84%	–	significant RXR:RAR antagonist activity	approximately twice the RXR:RAR antagonist activity as L2
–	–	CCCCOc1c(/C(C)=C/C=C/C(C)=C/C(=O)O)cc(C(C)(C)C)cc1C(C)(C)C [Compound L4]	0.9 nM	1 nM	2%	2%	not active as RXR:RAR agonists	88%	88%	–	significant RXR:RAR antagonist activity	–
5%	5%	CCCCCCCOc1c(/C(C)=C/C=C/C(C)=C/C(=O)O)cc(C(C)(C)C)cc1C(C)(C)C [Compound L5]	0.6 nM	0.6 nM	–	–	not active as RXR:RAR agonists	68%	68%	–	significant RXR:RAR antagonist activity	–
